Test results reported in PubChem BioAssay (NCI).
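All cell lines were grown in 96-well plates and treated with compound for 48 hours. At the TGI there is no net growth.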

Test system: P388/ADR leukemia
Test: NCI tumour cell line growth inhibition, 48 h

Compound CC[C@](C)(O)C(=O)O[C@H]1C(=O)O[C@@H]2C[C@H]3C(C)=CC(=O)[C@@H](O)[C@]3(C)[C@H]3[C@@]4(O)OC[C@]32[C@@H]1[C@@H](C)[C@H]4O has a TGI of 9.5 µM.
